Measured values published in patent US10363251B2, “(+)-morphinans as antagonists of toll-like receptor 9 and therapeutic uses thereof” (Mallinckrodt LLC, priority 2009, dated 2019).

Legend:
TLR9 [1] = molecular target: T1, TLR9 (Homo sapiens, UniProt Q9NR96); test: TLR9 screening of (+)-morphinan library, SEAP reporter in HEK293 cells expressing TLR9; assay type: cell-based; conditions: activator ODN2006; for OD 650 nm (mean ± sd): control (no activator) 0.14, activator 1.42 OD; for inhibition at 0.1 µM: HEK293, read-out: % Inhibition (mean), 100 nM; for inhibition at 10 µM: HEK293, read-out: % Inhibition (mean), 10 μM
T1 construct: expressed in transfected cells; host or cells: HEK293
T1 sequence (Q9NR96 26-1032): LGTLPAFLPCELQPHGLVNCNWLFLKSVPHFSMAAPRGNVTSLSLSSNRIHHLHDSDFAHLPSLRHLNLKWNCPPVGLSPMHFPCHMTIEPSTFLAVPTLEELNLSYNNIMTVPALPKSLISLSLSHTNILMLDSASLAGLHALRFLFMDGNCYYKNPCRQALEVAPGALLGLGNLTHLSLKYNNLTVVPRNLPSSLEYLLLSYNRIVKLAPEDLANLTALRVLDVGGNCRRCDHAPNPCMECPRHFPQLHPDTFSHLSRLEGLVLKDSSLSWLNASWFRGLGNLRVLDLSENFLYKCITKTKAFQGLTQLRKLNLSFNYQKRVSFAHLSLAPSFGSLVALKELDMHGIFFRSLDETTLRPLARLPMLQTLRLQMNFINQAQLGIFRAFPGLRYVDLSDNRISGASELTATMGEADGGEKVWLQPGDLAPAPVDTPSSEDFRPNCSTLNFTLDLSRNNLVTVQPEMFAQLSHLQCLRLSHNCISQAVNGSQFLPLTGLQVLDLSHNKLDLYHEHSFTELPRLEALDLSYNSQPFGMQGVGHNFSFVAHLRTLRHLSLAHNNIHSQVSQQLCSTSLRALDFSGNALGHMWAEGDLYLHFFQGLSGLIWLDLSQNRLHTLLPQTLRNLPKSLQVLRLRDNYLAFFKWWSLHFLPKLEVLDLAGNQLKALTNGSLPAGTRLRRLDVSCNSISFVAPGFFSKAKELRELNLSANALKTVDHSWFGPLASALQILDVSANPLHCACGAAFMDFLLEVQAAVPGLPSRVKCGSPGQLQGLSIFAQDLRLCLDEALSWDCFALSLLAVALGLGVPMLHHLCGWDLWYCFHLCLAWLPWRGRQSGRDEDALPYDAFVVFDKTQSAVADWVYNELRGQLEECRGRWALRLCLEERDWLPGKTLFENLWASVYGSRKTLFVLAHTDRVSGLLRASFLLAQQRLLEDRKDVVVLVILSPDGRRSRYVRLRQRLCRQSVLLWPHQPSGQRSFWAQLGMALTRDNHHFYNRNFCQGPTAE
Summary of the method: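 HEK293 cells expressing TLR9 with an NF-κB-inducible SEAP reporter were preincubated with compound at 10 μM and 100 nM for 30 min at 37 °C, then stimulated with ODN2006. SEAP was read as OD 650 nm after 16-20 h, in triplicate.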

[2] = Dissolution of compound in dosing vehicle (EAE study); assay type: physicochemical; conditions: 20 mg/kg in sterile dd H2O; delivered as a suspension
Description: It is not known whether the suspension dissolved adequately in the body to provide sufficient plasma concentration for efficacy.

[3] = system: Experimental Autoimmune Encephalomyelitis (EAE); conditions: for EAE clinical scores: bid for 20 days, Cmpd II-98 5 mg/kg sc, others 20 mg/kg sc, Prednisolone 4.5 mg/kg ip, vs vehicle control
TLR2 = molecular target: T2, TLR2 (Homo sapiens, UniProt O60603); test: TLR2 antagonist screening, NF-κB-inducible SEAP reporter in HEK293 cells; assay type: cell-based; conditions: 10 μM; stimulated with HKLM at 10^8 cell/ml
T2 construct: expressed in transfected cells; host or cells: HEK293
T2 sequence (O60603 21-784, species assumed): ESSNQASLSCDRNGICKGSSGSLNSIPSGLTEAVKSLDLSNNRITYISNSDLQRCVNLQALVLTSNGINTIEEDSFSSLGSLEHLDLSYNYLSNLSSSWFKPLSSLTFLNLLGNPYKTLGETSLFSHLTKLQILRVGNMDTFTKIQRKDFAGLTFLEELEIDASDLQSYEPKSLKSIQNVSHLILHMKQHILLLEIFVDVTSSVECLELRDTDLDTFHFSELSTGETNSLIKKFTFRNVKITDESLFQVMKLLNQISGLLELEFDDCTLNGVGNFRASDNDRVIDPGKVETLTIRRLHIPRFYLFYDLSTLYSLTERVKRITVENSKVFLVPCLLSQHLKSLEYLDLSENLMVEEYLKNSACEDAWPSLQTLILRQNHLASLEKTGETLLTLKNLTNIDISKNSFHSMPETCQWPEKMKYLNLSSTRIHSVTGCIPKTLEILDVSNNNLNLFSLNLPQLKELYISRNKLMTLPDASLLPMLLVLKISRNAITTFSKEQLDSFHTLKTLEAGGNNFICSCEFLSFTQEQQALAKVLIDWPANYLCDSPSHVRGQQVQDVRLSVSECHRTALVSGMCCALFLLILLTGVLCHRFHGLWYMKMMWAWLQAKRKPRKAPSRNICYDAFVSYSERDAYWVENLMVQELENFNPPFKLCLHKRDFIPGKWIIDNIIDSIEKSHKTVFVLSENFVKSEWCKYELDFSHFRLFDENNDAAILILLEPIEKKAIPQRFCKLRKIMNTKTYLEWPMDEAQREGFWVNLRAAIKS
Description: (§1) Stimulation of TLRs 2, 3, 4, 5, 7, 8, and 9 was determined by assessing activation of the transcription factor NF-κB in HEK293 cells that were engineered to express the corresponding receptors. Assessment of TLR stimulation was based on the use of an NF-κB-inducible secreted alkaline phosphatase (SEAP) reporter system in which the SEAP reporter was under the control of a promoter inducible by NF-κB. Thus, the degree of activation of TLRs can be indirectly quantified spectrophotometrically by measuring the amount of the SEAP reporter that is produced.
(§2) The appropriate TLR-expressing cells were plated in Growth Medium in a 96-well plate (25,000-50,000 cells/well). The cells were stimulated with the appropriate positive control ligand or no ligand was added (negative control). The positive control ligands were: HKLM was used to stimulate TLR2; poly(I:C) was used to stimulate TLR3; LPS was used to stimulate TLR4; Flagellin was used to stimulate TLR5; CL097 was used to stimulate TLR7; CL075 was used to stimulate TLR8; CpG oligodeoxynucleotide (ODN) 2006 was used to stimulate TLR9. To test whether (+)-morphinans could block that activation of the TLR, the cells were pretreated with an antagonist for 30 minutes prior to addition of the positive control ligand. For this, 20 μL of the stock test compound solution (100 μM in H2O) was added to give a total volume of 200 μL. […] After a 16-20 hr incubation period at 37° C. in a CO2 incubator, 20 μL of the cell culture supernatant was added to 180 μL of QUANTI-Blue™ Media (InvivoGen, San Diego, Calif.), and the resulting solutions were incubated at 37° C. for an additional 1-3 hours according to the manufacturer's instructions. The OD's of the samples were then read at 650 nm on a Beckman Coulter AD 340C Absorbance Detector.

TLR3 = molecular target: T3, TLR3 (Homo sapiens, UniProt O15455); test: TLR3 antagonist screening, NF-κB-inducible SEAP reporter in HEK293 cells; assay type: cell-based; conditions: 10 μM; stimulated with poly(I:C) at 1 μg/ml
T3 construct: expressed in transfected cells; host or cells: HEK293
T3 sequence (O15455 24-904, species assumed): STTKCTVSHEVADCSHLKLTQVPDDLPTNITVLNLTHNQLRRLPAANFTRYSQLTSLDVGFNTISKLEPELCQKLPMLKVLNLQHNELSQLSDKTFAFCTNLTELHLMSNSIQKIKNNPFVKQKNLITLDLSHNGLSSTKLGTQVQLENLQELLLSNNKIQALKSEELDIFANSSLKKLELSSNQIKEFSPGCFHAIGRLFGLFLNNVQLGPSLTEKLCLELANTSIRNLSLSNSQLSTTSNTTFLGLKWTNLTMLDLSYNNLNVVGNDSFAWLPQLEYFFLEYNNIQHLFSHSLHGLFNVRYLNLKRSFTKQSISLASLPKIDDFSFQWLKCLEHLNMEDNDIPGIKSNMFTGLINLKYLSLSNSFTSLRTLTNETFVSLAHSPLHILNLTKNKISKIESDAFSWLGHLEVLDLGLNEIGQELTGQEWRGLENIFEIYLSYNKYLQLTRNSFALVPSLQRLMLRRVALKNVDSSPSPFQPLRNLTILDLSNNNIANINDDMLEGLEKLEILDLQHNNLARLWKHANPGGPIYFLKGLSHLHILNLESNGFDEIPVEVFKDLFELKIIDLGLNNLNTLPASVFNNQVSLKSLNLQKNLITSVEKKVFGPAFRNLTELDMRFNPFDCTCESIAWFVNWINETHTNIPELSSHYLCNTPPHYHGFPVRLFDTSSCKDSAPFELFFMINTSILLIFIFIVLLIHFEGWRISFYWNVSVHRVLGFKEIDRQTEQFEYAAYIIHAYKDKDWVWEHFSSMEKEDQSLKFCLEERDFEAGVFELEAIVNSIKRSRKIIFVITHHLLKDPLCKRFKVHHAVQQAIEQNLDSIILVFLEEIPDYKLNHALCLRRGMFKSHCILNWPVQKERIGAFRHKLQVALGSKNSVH
Description: as §1, §2

TLR4 = molecular target: T4, TLR4 (Homo sapiens, UniProt O00206); test: TLR4 antagonist screening, NF-κB-inducible SEAP reporter in HEK293 cells; assay type: cell-based; conditions: 10 μM; stimulated with LPS at 100 ng/ml
T4 construct: expressed in transfected cells; host or cells: HEK293
T4 sequence (O00206 24-839, species assumed): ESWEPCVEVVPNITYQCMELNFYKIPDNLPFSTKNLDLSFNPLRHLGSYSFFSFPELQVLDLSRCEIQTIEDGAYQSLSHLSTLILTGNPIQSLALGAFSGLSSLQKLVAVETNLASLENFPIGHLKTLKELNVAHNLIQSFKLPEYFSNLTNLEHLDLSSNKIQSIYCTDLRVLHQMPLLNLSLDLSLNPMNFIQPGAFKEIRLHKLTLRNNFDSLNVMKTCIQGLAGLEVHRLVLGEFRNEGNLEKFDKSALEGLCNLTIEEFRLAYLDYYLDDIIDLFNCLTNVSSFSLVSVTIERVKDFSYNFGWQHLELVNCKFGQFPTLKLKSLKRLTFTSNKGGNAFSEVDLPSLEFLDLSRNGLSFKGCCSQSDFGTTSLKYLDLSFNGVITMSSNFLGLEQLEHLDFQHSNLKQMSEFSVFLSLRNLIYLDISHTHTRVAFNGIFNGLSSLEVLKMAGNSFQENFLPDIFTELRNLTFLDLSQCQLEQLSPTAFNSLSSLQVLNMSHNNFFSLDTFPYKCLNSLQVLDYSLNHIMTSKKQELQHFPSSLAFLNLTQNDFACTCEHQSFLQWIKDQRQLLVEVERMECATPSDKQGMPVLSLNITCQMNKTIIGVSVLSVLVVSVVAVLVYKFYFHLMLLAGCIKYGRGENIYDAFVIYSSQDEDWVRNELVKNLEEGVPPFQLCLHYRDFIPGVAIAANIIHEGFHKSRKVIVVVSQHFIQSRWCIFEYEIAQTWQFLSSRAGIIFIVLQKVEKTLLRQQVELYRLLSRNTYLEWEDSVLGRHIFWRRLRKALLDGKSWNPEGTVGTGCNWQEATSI
T4 sequence (Q9Y6Y9 17-160 partner limits assumed, species assumed): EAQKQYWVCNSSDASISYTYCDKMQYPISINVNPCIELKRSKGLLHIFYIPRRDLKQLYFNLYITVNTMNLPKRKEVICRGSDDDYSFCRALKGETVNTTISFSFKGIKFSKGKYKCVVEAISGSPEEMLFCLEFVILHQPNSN
Description: as §1, §2

TLR5 = molecular target: T5, TLR5 (Homo sapiens, UniProt O60602); test: TLR5 antagonist screening, NF-κB-inducible SEAP reporter in HEK293 cells; assay type: cell-based; conditions: 10 μM; stimulated with Flagellin at 100 ng/ml
T5 construct: expressed in transfected cells; host or cells: HEK293
T5 sequence (O60602 21-858, species assumed): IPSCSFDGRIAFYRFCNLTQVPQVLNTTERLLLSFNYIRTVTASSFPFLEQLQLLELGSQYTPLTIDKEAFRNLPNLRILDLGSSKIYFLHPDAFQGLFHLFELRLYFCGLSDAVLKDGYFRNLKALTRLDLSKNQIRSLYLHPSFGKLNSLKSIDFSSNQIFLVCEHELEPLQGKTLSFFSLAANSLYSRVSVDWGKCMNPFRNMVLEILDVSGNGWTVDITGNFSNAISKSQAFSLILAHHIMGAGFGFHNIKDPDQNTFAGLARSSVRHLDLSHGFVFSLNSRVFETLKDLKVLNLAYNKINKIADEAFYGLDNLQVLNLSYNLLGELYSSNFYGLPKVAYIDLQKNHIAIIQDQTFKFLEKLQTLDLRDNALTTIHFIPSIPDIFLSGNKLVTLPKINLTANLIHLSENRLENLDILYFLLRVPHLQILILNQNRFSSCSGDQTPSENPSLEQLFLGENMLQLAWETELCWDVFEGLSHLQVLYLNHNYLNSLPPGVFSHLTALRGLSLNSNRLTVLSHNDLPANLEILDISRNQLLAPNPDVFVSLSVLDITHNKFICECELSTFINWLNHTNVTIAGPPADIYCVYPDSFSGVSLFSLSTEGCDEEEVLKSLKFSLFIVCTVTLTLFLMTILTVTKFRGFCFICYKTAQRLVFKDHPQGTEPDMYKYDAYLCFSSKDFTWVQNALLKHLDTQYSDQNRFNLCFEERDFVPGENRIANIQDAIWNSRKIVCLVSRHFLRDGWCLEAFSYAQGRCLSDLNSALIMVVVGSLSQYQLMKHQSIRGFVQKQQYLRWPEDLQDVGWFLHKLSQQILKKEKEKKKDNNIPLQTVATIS
Description: as §1, §2

TLR9 [4] = molecular target: T1, TLR9; test: TLR9 antagonist screening, NF-κB-inducible SEAP reporter in HEK293 cells; assay type: cell-based; conditions: 10 μM; stimulated with CpG ODN 2006 at 100 ng/ml
Description: as §1, §2

[5] = system: chronic constriction injury (CCI) neuropathic pain model; test: Mechanical allodynia (Von Frey) in chronic constriction injury (Bennett) model, Example 3; assay type: in vivo, rat; conditions: Day 14 post-surgery, 30 and 90 min post-dosing, vs vehicle
Description: Neuropathic pain affects approximately 1% of the U.S. population and is extremely difficult to manage. Usually the pain is chronic, severe, and fails to respond to traditional analgesic drugs. Fortunately, one of the most widely used animal models for neuropathic pain closely mimics the pain endured by patients. In this model, termed the chronic constriction injury (CCI) or Bennett model, four closely spaced ligatures tied loosely around the sciatic nerve of a rat cause demyelination of the nerve, resulting in spontaneous pain, such as prolonged paw elevation and licking of the ligated paw. Induced pain in the nerve-injured limb can be measured using Von Frey filaments, applied to the plantar surface of the paw to test for responses to non-noxious tactile stimulation. The onset of this heightened mechanical allodynia is quite rapid and it persists for 2-3 months.
In this example, the CCI ligation was performed on the left sciatic nerve in three groups of rats. Von Frey testing of mechanical allodynia was performed on both paws on Day 14 to determine the analgesic efficacy of the test agent. The testing was performed pre-dosing, and at 30 and 90 minutes post-dosing.
The animals were allocated to treatment groups based on their baseline Von Frey data, measured prior to surgery. The mechanical allodynia scores for each group were reviewed to ensure that the mean values and standard deviation satisfied the assumption of homogeneity. Thirty-one (31) animals were used on the study. Thirty (30) animals were initially allocated to treatment groups, and the remaining […] animals were held as spares. One spare was then used to replace an animal that died during surgery. Body weights were taken one day after arrival, prior to surgery and weekly thereafter. On Day 14, after the final behavioral testing, the animals were euthanized by carbon dioxide asphyxiation. No necropsy was performed nor tissues collected.
All surgeries were performed under aseptic conditions. Prior to surgery, the rats were sedated using inhaled Isoflurane anesthetic. The left leg was shaved and prepped. The common sciatic nerve was exposed and freed from adherent tissue at mid-thigh by separating the muscle (biceps femoris) by blunt dissection. Proximal to the sciatic nerve's trifurcation; approximately 7 mm of nerve was freed from the adhering tissue. Four ligatures, approximately 1 mm apart, were tied loosely around the nerve using 6.0 chromic catgut. Each of the sutures was tied loosely with a square knot around the sciatic nerve. A brief twitch in the muscle surrounding the exposure was an indicator of the desired degree of constriction. The site was then closed using the appropriate suture material. Post-operative care and observations were carried out until the animal recovered consciousness.
The animals underwent a series of behavioral testing for neuropathic pain assessment. A Von Frey test of mechanical allodynia was performed on both hind paws prior to surgery to achieve a baseline measurement for randomization and then following surgery on Day 14 (test article efficacy) according to Table 4.
Twice prior to surgery, the animals were acclimated to the allodynia apparatus. This habituated the rats to the testing devices to familiarize them with the apparatus so they were calm at the time of testing. […] Animals were first habituated to the testing chamber so that they were calm enough for their pain threshold to be assessed. […]

[6] = system: APAP-induced liver toxicity; test: Acetaminophen (APAP)-induced hepatotoxicity model; assay type: in vivo, mouse; conditions: APAP 500 mg/Kg ip, 12 hours post-APAP
Description: For this, APAP-induced liver toxicity was induced in male C57BL/6 mice aged between 8-10 weeks by a single intraperitoneal (ip) injection of APAP in PBS at a dose of 500 mg/Kg (Imaeda et al. (2009) J. Clin. Invest. 119(2):305-314). The ability of (+)-morphinans to reduce liver toxicity was tested in the following groups:
The (+)-morphinan (or PBS) was either administered as a single subcutaneous (sc) or ip injection concurrent with the APAP injection or one hour prior to the APAP injection.
The mice were sacrificed 12 hours post-APAP treatment. Liver samples were stained with H&E and analyzed for signs of necrosis and hemorrhage. Histology scores were assigned using the standard rating scale. The levels of serum alanine transaminase (ALT) were also measured in each animal using a standard assay.

Row | Structure (SMILES) | OD 650 nm (mean ± sd) (TLR9 [1]; 100 nM) | OD 650 nm (mean ± sd) (TLR9 [1]; 10 μM) | inhibition at 0.1 µM (TLR9 [1]) | inhibition at 10 µM (TLR9 [1]) | EAE clinical scores [3] | further results
1 | COC1=CC=C2[C@@H]3Cc4ccc(OC)c5c4[C@]2(CCN3)[C@@H]1O5 [II-38] | 0.86 ± 0.01 OD | 0.12 ± 0.01 OD | 40% | 92% | did not improve EAE | Dissolution in dosing vehicle [2]: did not dissolve into a solution
2 | O=C1CC[C@]2(O)[C@@H]3Cc4ccc(O)c5c4[C@]2(CCN3CC2CC2)[C@@H]1O5 [(+)-Naltrexone, (+)-naltrexone] | – | – | – | – | – | Average % Inhibition at TLR2 (TLR2): 21%; Average % Inhibition at TLR3 (TLR3): 22%; Average % Inhibition at TLR4 (TLR4): 24%; Average % Inhibition at TLR5 (TLR5): 22%; Average % Inhibition at TLR9 (TLR9 [4]): 51%
3 | C[C@]12C=CC(=O)C=C1CC[C@@H]1[C@@H]2[C@@H](O)C[C@@]2(C)[C@H]1CC[C@]2(O)C(=O)CO [Prednisolone, reference compound] | – | – | – | – | significantly reduced EAE clinical scores | –
4 | NCC1(CC(=O)O)CCCCC1 [Gabapentin] | – | – | – | – | – | Mechanical allodynia (50% allodynia threshold), left (affected) paw ([5]; (+)-naloxone.HCl 66.7 mg/kg S.C., Gabapentin 100 mg/kg I.P.): effective at significantly reducing the allodynia; Mechanical allodynia (50% allodynia threshold), right (unaffected) paw [5]: higher threshold
5 | COc1ccc2c3c1O[C@@H]1C(=O)CC[C@@H]4[C@H](C2)N(CC2CC2)CC[C@@]314 [II-24] | 0.65 ± 0.04 OD | 0.09 ± 0.01 OD | 54% | 94% | did not improve EAE | Protection from APAP-induced toxicity ([6]; test doses and timing per Table 6): None of compounds II-24, II-93, or III-2 provided any protection; Liver histology scores (necrosis and hemorrhage) ([6]; vs APAP alone): about the same as those only exposed to APAP
6 | COC1=CCC2[C@@H]3Cc4ccc(OC)c5c4[C@]2(CCN3)[C@@H]1O5 (some centres unmarked) [II-98] | 1.02 ± 0.02 OD | 0.56 ± 0.03 OD | 28% | 60% | – | Acute toxicity ([3]; 20 mg/kg bid, subcutaneous): acute toxicity was observed
